Measured values reported in patent US20030113330A1, “Methods for treating pulmonary fibrosis” (priority 1999, published 2003).
Entries after “also recorded” stand apart in the source; their conditions may differ. Where a SMILES comes first, the peptide text is derived from it. The star is where a group is joined. Cbz = O=C(OCc1ccccc1)*; CH2F = FC*

Tests used:
[1] = system: primary rat AEC; test: Fas ligand-induced apoptosis of primary rat alveolar epithelial cells; assay type: cell-based; conditions: lisinopril 500 ng/ml; for inhibition of Fas ligand-induced apoptosis of primary rat AEC (words): captopril, caspase inhibitors 60 uM
Experimental: (§1) Lung Cell Isolation and Detection of Apoptosis In Vitro. Primary alveolar epithelial cells (AEC) were isolated from adult male Wistar rats as described above. The primary cells were studied at day two of culture, a time at which they are type II cell-like by accepted morphologic and biochemical criteria, see Paine et al., Am. J. Physiol. […] All cells were seeded in 24-well or 6-well chambers, and all experiments were conducted at subconfluent densities of 80-90% in serum-free Ham's F12 medium. Test reagents were diluted with Ham's F12 medium and were applied for 20 hours at 37° C. in a 5% CO2 incubator.
Detection of apoptotic cells with propidium iodide (PI) was conducted as described above, following digestion of ethanol-fixed cells with DNAse-free RNAse in PBS containing 5 ug/ml PI.
Expression of FAS by alveolar epithelial cells is observed during bleomycin-induced fibrogenesis in mice. See Hagimoto, et al., Am. J. Respir. Cell Mol. Biol. 16:91-101 (1997). […] Apoptosis was detected by quantitation of fragmented nuclei (see above).
Cell Culture and Detection of Apoptosis. The human lung adenocarcinoma cell line A549 was obtained from American Type Culture Collection and cultured in Ham's F12 medium supplemented with 10% fetal bovine serum (FBS). Primary alveolar epithelial cells were isolated from adult male Wistar rats as described earlier (Uhal, B. D., I. Joshi, A. True, S. Mundle, A. Raza, A. Pardo and M. Selman. Fibroblasts isolated after fibrotic lung injury induce apoptosis of alveolar epithelial cells in vitro. Am. J. Physiol. 269:L819-L828, 1995); Wang, R., A. Zagariya, 0. Ibarra-Sunga, C. […] Am. J. Physiol. 276:L885-L889 (1999)). […] All cells were seeded in 24-well or 6-well chambers, and all experiments were conducted at subconfluent densities of 80-90% in serum-free Ham's F12 medium. Test reagents were diluted with serum-free Ham's F12 medium and were applied under serum-free conditions for 20 hours at 37C. in a 5% CO2 incubator. Detection of apoptotic cells with propidium iodide (PI) was conducted as described above Am. J. Physiol. 275:L1013-1017 (1998); Uhal et al., following digestion of ethanol-fixed cells with DNAse-free RNAse in PBS containing 5 μg/ml PI. In all assays, detached cells were retained by centrifugation of the culture vessels during fixation with 70% ethanol, or by retention of culture media and recovery by centrifugation before assay.
Apoptosis was detected by nuclear fragmentation as described above.

[2] = system: A549 cells; test: Amiodarone-induced net cell loss in A549 cultures; assay type: cell-based, human; conditions: A549
Experimental: (§4) Primary alveolar epithelial cells were isolated from adult male Wistar rats. The primary cells were studied at day two of culture, a time at which they are type II cell-like by accepted morphologic and biochemical criteria. All primary cell preparations were of better than 90% purity assessed by acridine orange staining. All cells were seeded in 24-well or 6-well chambers, and all experiments were conducted at subconfluent densities of 80-90% in serum-free Ham's F12 medium. Test reagents were diluted with Ham's F12 medium and were applied for 20 hours at 37C. in a 5% CO2 incubator.
(§5) Importantly, unattached cells were recovered and included in the analyses, and thus the data represent true loss of cells rather than simple detachment from the substratum.

[3] = system: A549 cells; conditions: for inhibition of amiodarone-induced apoptosis: captopril 500 ng/ml, saralasin 50 ug/ml, Losartan 5 pg/ml
Experimental: as §1, with “The human lung adenocarcinoma cell line A549 (ATCC) was cultured in Ham's F12 medium supplemented with 10% fetal bovine serum (FBS).” for “Lung Cell Isolation and Detection of Apoptosis In Vitro.”, “cells” for “cells (AEC)”, “rats.” for “rats as described above.”, “criteria.” for “criteria, see Paine et al., Am. J. Physiol.”, “37C.” for “37° C.”
(§2) Apoptotic cells were detected using propidium iodide (PI) following digestion of ethanol-fixed cells with DNAse-free RNAse in PBS containing 5 ug/ml PI. […] In replicate culture vessels, necrosis was detected as the loss of exclusion of PI after application of the vital dye directly to the cell culture medium at 5 ug/ml final concentration. Red fluorescent (PI-POSITIVE) cells (>570 nm) were scored over the subsequent hour as a percentage of the total cells in any given field. A minimum of 4 separate fields were scored in each of three separate culture vessels per experiment condition; all experiments were performed at least twice and the data were compiled. Although all necrotic cells are PI-positive, some apoptotic cells may also take up the dye but these comprise a minor fraction of the total dead cell population.
(§3) In all assays, detached cells were retained by centrifugation of the culture vessel at 300×g for 10 minutes with a centrifuge rotor designed for culture plates. For detection of necrosis (dye exclusion of PI), the PI was added directly to the cell culture medium immediately before centrifugation of the culture vessel. For detection of apoptosis, ethanol was added directly to the cell culture medium to a final concentration of 70% immediately before the centrifugation. Afterward, the ethanol was carefully removed and the total cell population (attached plus sedimented detached cells) were stained with PI as described above.

[4] = system: primary rat AEC; conditions: for inhibition of amiodarone-induced apoptosis: captopril 500 ng/ml, saralasin 50 ug/ml, Losartan 5 pg/ml, amiodarone 2.5 ug/ml for chelerythrine, orthovanadate
Experimental: as §1, with “The human lung adenocarcinoma cell line A549 (ATCC) was cultured in Ham's F12 medium supplemented with 10% fetal bovine serum (FBS).” for “Lung Cell Isolation and Detection of Apoptosis In Vitro.”, “cells” for “cells (AEC)”, “rats.” for “rats as described above.”, “criteria.” for “criteria, see Paine et al., Am. J. Physiol.”, “37C.” for “37° C.”
as §2, §3

[5] = system: primary rat AEC; test: Amiodarone-induced net cell loss in primary rat AEC cultures; assay type: cell-based; conditions: primary rat AEC
Experimental: as §4, §5

SMILES	inhibition of Fas ligand-induced apoptosis of primary rat AEC (words) [1]	effect on amiodarone-induced decrease in total cell number [2]	inhibition of amiodarone-induced apoptosis [3]	inhibition of amiodarone-induced apoptosis [4]	effect on amiodarone-induced decrease in total cell number [5]	further results
NCCCC[C@H](N[C@@H](CCc1ccccc1)C(=O)O)C(=O)N1CCC[C@H]1C(=O)O [lisinopril]	blocked	–	–	–	–	inhibition at 0.5 µg/mL ([1]; Rattus norvegicus, Epithelial cell, read-out: inhibition of FASL-induced apoptosis, FASL 25 ng/ml, saralasin 5 mg/ml): 87%
CCc1nc2c(C)cc(C)nc2n1Cc1ccc(-c2ccccc2-c2nn[nH]n2)cc1 [L158809]	could block	–	–	–	–	–
C[C@H](CS)C(=O)N1CCC[C@H]1C(=O)O [captopril]	comparable efficacy to inhibit apoptosis; also recorded: blocked	significantly inhibited	inhibited	inhibited	significantly inhibited	–
CNCC(=O)N[C@@H](CCCN=C(N)N)C(=O)N[C@H](C(=O)N[C@@H](Cc1ccc(O)cc1)C(=O)N[C@H](C(=O)N[C@@H](Cc1cnc[nH]1)C(=O)N1CCC[C@H]1C(=O)N[C@@H](C)C(=O)O)C(C)C)C(C)C [saralasin]	blocked	significantly inhibited	inhibited	inhibited	significantly inhibited	inhibition of FASL-induced apoptosis ([1]; FASL 25 ng/ml, saralasin 5 mg/ml): 92%
COC(=O)C[C@H](NC(=O)[C@H](C)NC(=O)[C@@H](NC(=O)OCc1ccccc1)C(C)C)C(=O)CF [ZVAD-fmk, N-benzylcarboxy-Val-Ala-Asp-[O-Me]-CH2F] (Cbz-Val-Ala-Asp(OMe)-CH2F)	comparable efficacy to inhibit apoptosis	significantly inhibited	–	–	significantly inhibited	inhibition of Fas ligand-induced apoptosis of primary rat AEC (words) ([1]; listed as ZVADfmk): abrogate; inhibition of apoptosis in response to amiodarone ([3]; A549): 81%; inhibition of apoptosis in response to amiodarone ([4]; primary rat AEC): 97%; net cell loss abrogated [5]: 75%
COc1ccc2c(c1OCc1ccccc1)C[C@@H](C(=O)O)N(C(=O)C(c1ccccc1)c1ccccc1)C2 [PD126055]	unable to significantly inhibit	–	–	–	–	–
